Data from publication PMC6766848, “Inhibition of Pancreatic α-amylase by Resveratrol Derivatives: Biological Activity and Molecular Modelling Evidence for Cooperativity between Viniferin Enantiomers” (Molecules, 2019).

Target: T1, Porcine pancreatic α-amylase (Sus scrofa, UniProt P00690)
T1 construct: purchased Sigma-Aldrich (Milan, Italy)
T1 sequence (P00690 16-511): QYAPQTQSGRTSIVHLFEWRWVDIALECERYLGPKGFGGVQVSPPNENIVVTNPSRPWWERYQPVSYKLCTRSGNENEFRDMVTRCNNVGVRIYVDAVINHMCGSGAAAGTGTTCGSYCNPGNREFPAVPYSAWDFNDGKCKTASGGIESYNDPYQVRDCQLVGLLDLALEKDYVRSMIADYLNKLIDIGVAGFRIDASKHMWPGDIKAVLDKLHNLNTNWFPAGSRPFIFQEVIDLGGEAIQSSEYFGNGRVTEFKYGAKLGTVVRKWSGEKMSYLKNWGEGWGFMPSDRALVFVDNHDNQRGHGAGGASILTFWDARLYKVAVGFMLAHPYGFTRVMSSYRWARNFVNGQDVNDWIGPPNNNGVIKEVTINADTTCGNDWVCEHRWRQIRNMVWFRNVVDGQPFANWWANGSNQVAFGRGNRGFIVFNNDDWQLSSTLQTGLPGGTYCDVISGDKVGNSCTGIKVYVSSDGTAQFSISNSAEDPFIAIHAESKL
Assay: Pancreatic α-amylase inhibition (modified K-AMYLSD kit, p-nitrophenyl-α-D-maltoheptaoside substrate)
Format: biochemical
Conditions: for inhibition at 10000 µM: 10 mM final concentration; for Hill cooperativity coefficient (n^H) / Ki: three-parameter Hill equation fit, inhibitor zero to 0.1 mM; for Ki: read-out: Ki^app
Experimental: The monomeric and dimeric stilbenoids described above were tested for their ability to inhibit the enzyme α-amylase, using acarbose as a reference compound. The method used to evaluate the enzyme activity relies on a two-step procedure. In a first step, α-amylase acts on a modified p-nitrophenyl-α-D-maltoheptaoside, releasing products that may be hydrolyzed by an excess α-glucosidase present in the assay mixture, therefore allowing spectrophotometric quantitation of the released p-nitrophenolate anion.
Porcine pancreatic α-amylase [EC 3.2.1.1] was from Sigma-Aldrich (Milan, Italy). Activity was monitored by using the K-AMYLSD kit from Megazyme (Bray, Ireland), with modifications. An aliquot of α-amylase (0.03 mL, 0.1 μM in 50 mM phosphate buffer, pH 6.8) was added to 0.120 mL of 50 mM phosphate buffer, pH 6.8, in a microtiter plate well. The investigated compounds where then added as methanolic solutions (0.03 mL) of appropriate concentration. The reaction was started by adding 0.02 mL of the substrate solution provided with the kit, resulting in a final concentration of 0.4 μM substrate. The kit-provided substrate solution also contained an excess of thermostable bacterial α-glucosidase, that is required for the release of the p-nitrophenolate anion from the p-nitrophenyl glucosides produced by the activity of α-amylase on the chemically modified maltoheptaoside. At appropriate times, the reaction was stopped by adding 0.1 mL of 0.2 M Na2CO3, and the absorbance was read in a microplate reader set at 405 nm. Blanks were prepared in the absence of the pancreatic α-amylase. […] Acarbose (from a stock solution in methanol) was used as the reference inhibitor. A minimum of three independent replications was carried out for each assay.

inhibition at 10000 µM (versus controls with 15% MeOH)	SMILES	other results
28%	COc1cc(/C=C/c2ccc3c(c2)[C@@H](c2cc(OC)cc(OC)c2)[C@H](c2ccc(O)cc2)O3)cc(OC)c1 (relative stereo) [compound 8, pterostilbene-trans-dihydrodimer]	–
–	Oc1ccc([C@@H]2Oc3ccc(/C=C/c4cc(O)cc(O)c4)cc3[C@H]2c2cc(O)cc(O)c2)cc1 [(R, R)-trans-δ-viniferin]	Hill cooperativity coefficient (n^H): 1.5; Ki: 43 µM
–	Oc1ccc([C@H]2Oc3ccc(/C=C/c4cc(O)cc(O)c4)cc3[C@@H]2c2cc(O)cc(O)c2)cc1 [(S, S)-trans-δ-viniferin]	Hill cooperativity coefficient (n^H): four; Ki: 58 µM
–	C[C@H]1O[C@H](O[C@H]2[C@H](O)[C@@H](O)[C@@H](O[C@H]3[C@H](O)[C@@H](O)C(O)O[C@@H]3CO)O[C@@H]2CO)[C@H](O)[C@@H](O)[C@@H]1N[C@H]1C=C(CO)[C@@H](O)[C@H](O)[C@H]1O (stereo partly shown) [acarbose, reference compound]	inhibition at 1000 µM (1 mM final concentration, versus controls with 15% MeOH): 86%
21%	COc1cc(/C=C/c2ccc(O)cc2)cc(OC)c1 [compound 2, pterostilbene]	–
~90%	Oc1ccc(C2Oc3ccc(C=Cc4cc(O)cc(O)c4)cc3C2c2cc(O)cc(O)c2)cc1 (stereo not drawn) [compound 5, Trans-δ-viniferin]	–
~90%	Oc1ccc(C=Cc2cc(O)cc3c2C(c2cc(O)cc(O)c2)C(c2ccc(O)cc2)O3)cc1 (stereo not drawn) [compound 6, Trans-ε-viniferin]	–
21 to 45%	Oc1ccc([C@@H]2c3c(O)cc(O)cc3[C@H]3[C@H](c4ccc(O)cc4)c4c(O)cc(O)cc4[C@@H]23)cc1 [compound 7, pallidol]	–
